In PubChem BioAssay (NCI):
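Grown in 96-well plates, cells were treated for 48 hours with each compound at five concentrations. Insufficient inhibition: endpoint recorded as highest concentration tested. The concentration for 50% growth inhibition is given as GI50. TGI marks complete inhibition of growth.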

Assays:
Assay in all cases: growth of human tumour cells (NCI), 48 h
[1] = test system: EKVX NSCLC
[2] = test system: NCI-H23 lung
[3] = test system: UO-31 renal
[4] = test system: HCC-2998 colon
[5] = test system: SK-MEL-28 melanoma
[6] = test system: LOX IMVI melanoma
[7] = test system: OVCAR-8 ovarian
[8] = test system: RPMI-8226 leukemia
[9] = test system: HL-60(TB) leukemia
[10] = test system: IGROV1 ovarian

COc1ccc(C2=Nn3c(nnc3-c3ccc(F)c(Cl)c3)SC2)cc1
GI50 [1]: > 100 µM
TGI [1]: > 100 µM
GI50 [2]: > 100 µM
TGI [2]: > 100 µM
GI50 [3]: > 100 µM
TGI [3]: > 100 µM
GI50 [4]: > 100 µM
TGI [4]: > 100 µM
GI50 [5]: > 100 µM
TGI [5]: > 100 µM
GI50 [6]: > 100 µM
TGI [6]: > 100 µM
GI50 [7]: > 100 µM
TGI [7]: > 100 µM
GI50 [8]: > 100 µM
TGI [8]: > 100 µM
GI50 [9]: > 100 µM
TGI [9]: > 100 µM
GI50 [10]: > 100 µM
TGI [10]: > 100 µM

O=C(NCCCN1CCN(CCCNC(=O)c2cccc3ccccc23)CC1)c1cccc2ccccc12
TGI [1]: > 100 µM
TGI [2]: > 100 µM
TGI [3]: > 100 µM
TGI [4]: > 100 µM
TGI [6]: > 100 µM
TGI [7]: > 100 µM
TGI [8]: > 100 µM
TGI [9]: > 100 µM
TGI [10]: > 100 µM

COc1ccc(/C=C\c2cc(OC)c(OC)c(OC)c2)cc1NC(=O)/C=C/c1ccc(OC)c(OC)c1
GI50 [1]: > 100 µM
TGI [1]: > 100 µM
GI50 [2]: 16.5 µM
TGI [2]: > 100 µM
GI50 [3]: 6.21 µM
TGI [3]: > 100 µM
GI50 [4]: 2.72 µM
TGI [4]: > 100 µM
GI50 [5]: 3.39 µM
TGI [5]: > 100 µM
GI50 [6]: 7.41 µM
TGI [6]: > 100 µM
GI50 [7]: 5.1 µM
TGI [7]: > 100 µM
GI50 [8]: 3.95 µM
TGI [8]: > 100 µM
GI50 [9]: 2.54 µM
TGI [9]: 8.85 µM
GI50 [10]: 18.8 µM
TGI [10]: > 100 µM

O=C1OC(c2ccc([N+](=O)[O-])cc2)=N/C1=C\c1ccc(Cl)cc1
TGI [1]: > 100 µM
TGI [2]: > 100 µM
TGI [4]: > 100 µM
TGI [5]: > 100 µM
TGI [6]: > 100 µM
TGI [7]: > 100 µM
TGI [8]: > 100 µM
TGI [9]: > 100 µM
TGI [10]: > 100 µM

O=C(O)/C=C/c1c2ccc(=O)c(O)c-2oc2c(O)c(O)ccc12
TGI [1]: > 100 µM
TGI [2]: > 100 µM
TGI [3]: > 100 µM
TGI [4]: > 100 µM
TGI [5]: > 100 µM
TGI [6]: 62.2 µM
TGI [7]: > 100 µM
TGI [8]: 55.9 µM
TGI [9]: > 100 µM
TGI [10]: > 100 µM

CC(=O)CC[N+](C)(C)C
TGI [1]: 28.9 µM
TGI [2]: 59.6 µM
TGI [3]: 67.8 µM
TGI [4]: 68.1 µM
TGI [5]: 50 µM
TGI [6]: 37.8 µM
TGI [7]: 67.5 µM
TGI [8]: 26 µM
TGI [9]: 14 µM
TGI [10]: 53.4 µM

CCN(Cc1cc(Cl)cc(C)c1O)Cc1c(O)ccc2ccccc12
TGI [1]: 32.8 µM
TGI [2]: 32.1 µM
TGI [3]: 30.4 µM
TGI [4]: 32.7 µM
TGI [5]: 34.8 µM
TGI [6]: 38.8 µM
TGI [7]: 37.7 µM
TGI [8]: > 100 µM
TGI [9]: 34 µM
TGI [10]: 31.1 µM

COc1ccc(-n2cc(-c3cc(OC)c(OC)c(OC)c3)nc2SCc2cccc(C#N)c2)cc1OC
GI50 [1]: > 100 µM
TGI [1]: > 100 µM
GI50 [2]: > 100 µM
TGI [2]: > 100 µM
GI50 [3]: > 100 µM
TGI [3]: > 100 µM
GI50 [4]: > 100 µM
TGI [4]: > 100 µM
GI50 [5]: 16.8 µM
TGI [5]: > 100 µM
GI50 [6]: > 100 µM
TGI [6]: > 100 µM
GI50 [8]: > 100 µM
TGI [8]: > 100 µM
GI50 [9]: > 100 µM
TGI [9]: > 100 µM
GI50 [10]: > 100 µM
TGI [10]: > 100 µM

CC(C)(C)OC(=O)N(CCCCN(CCCn1c2c(c3ccccc3c1=O)C(=O)c1ccccc1-2)C(=O)OC(C)(C)C)CCCn1c2c(c3ccccc3c1=O)C(=O)c1ccccc1-2
GI50 [2]: 25 µM
TGI [2]: > 100 µM
GI50 [3]: 28.4 µM
TGI [3]: > 100 µM
GI50 [4]: 10.9 µM
TGI [4]: 41 µM
GI50 [5]: > 100 µM
TGI [5]: > 100 µM
GI50 [6]: 18.6 µM
TGI [6]: > 100 µM
GI50 [7]: > 100 µM
TGI [7]: > 100 µM
GI50 [8]: 17.9 µM
TGI [8]: 69.1 µM
GI50 [9]: > 100 µM
TGI [9]: > 100 µM

CC(=O)c1cc2c(Br)cccc2oc1=O
TGI [1]: > 100 µM
TGI [2]: > 100 µM
TGI [4]: > 100 µM
TGI [5]: > 100 µM
TGI [6]: > 100 µM
TGI [7]: > 100 µM
TGI [8]: > 100 µM
TGI [9]: > 100 µM
TGI [10]: > 100 µM

Cc1cc(NC(=O)NCCOc2ccc(N3C(N)=NC(N)=NC3(C)C)cc2Cl)ccc1S(=O)(=O)F
GI50 [2]: 2.76 µM
TGI [2]: > 100 µM
GI50 [3]: > 100 µM
TGI [3]: > 100 µM
GI50 [4]: 2.96 µM
TGI [4]: > 100 µM
GI50 [5]: 3.59 µM
TGI [5]: > 91.7 µM
GI50 [6]: 0.74 µM
TGI [6]: > 100 µM
GI50 [7]: 4.91 µM
TGI [7]: > 100 µM
GI50 [8]: 3.46 µM
TGI [8]: > 55 µM
GI50 [9]: 1.8 µM
TGI [9]: 36.8 µM
GI50 [10]: 0.545 µM
TGI [10]: > 100 µM

COc1ccc(-c2nc(NC(=O)CS(=O)(=O)c3ccc(F)cc3)sc2C)cc1
GI50 [2]: 27.9 µM
TGI [2]: > 100 µM
GI50 [3]: 18.9 µM
TGI [3]: 92 µM
GI50 [4]: 26 µM
TGI [4]: 94.7 µM
GI50 [5]: 20.1 µM
TGI [5]: 62 µM
GI50 [6]: 19.2 µM
TGI [6]: 42.6 µM
GI50 [7]: 24.1 µM
TGI [7]: 89.3 µM
GI50 [8]: 17.6 µM
TGI [8]: 56.5 µM
GI50 [9]: 16.5 µM
TGI [9]: 66 µM
GI50 [10]: 28.2 µM
TGI [10]: > 100 µM

Cc1nc(-n2nc(-c3ccccc3)cc2-c2ccccc2)sc1C(=O)CC(=O)C(=O)Nc1ccc(Cl)c(Cl)c1
TGI [1]: > 100 µM
TGI [2]: > 100 µM
TGI [3]: > 100 µM
TGI [4]: > 100 µM
TGI [6]: > 100 µM
TGI [7]: > 100 µM
TGI [8]: > 100 µM
TGI [9]: > 100 µM
TGI [10]: > 100 µM

O=C(c1ccc(Cl)cc1Cl)N1CCN(C(=O)c2ccc(Cl)cc2Cl)C1=S
GI50 [1]: 20.5 µM
TGI [1]: 48.4 µM
GI50 [2]: 19.8 µM
TGI [2]: 43.4 µM
GI50 [4]: 22 µM
TGI [4]: 44.4 µM
GI50 [5]: 18.4 µM
TGI [5]: 39.4 µM
GI50 [6]: 17.1 µM
TGI [6]: 30.8 µM
GI50 [7]: 22.1 µM
TGI [7]: 48.5 µM
TGI [8]: 30.7 µM
GI50 [9]: 16.6 µM
TGI [9]: 34.1 µM
GI50 [10]: 21 µM
TGI [10]: 46 µM

CN[C@@H](C)C(=O)N[C@H](C(=O)N1CCC[C@H]1c1nc(C(=O)c2ccc(F)cc2)cs1)C1CCCCC1
GI50 [2]: 11.2 µM
TGI [2]: > 62.1 µM
GI50 [3]: 36.1 µM
TGI [3]: > 94.3 µM
GI50 [4]: 16 µM
TGI [4]: 31.2 µM
GI50 [5]: 16.6 µM
TGI [5]: 32 µM
GI50 [6]: 19 µM
TGI [6]: 37 µM
GI50 [7]: 11.1 µM
TGI [7]: 29.3 µM
GI50 [8]: 16.6 µM
TGI [8]: 55.4 µM
GI50 [9]: 3.69 µM
TGI [9]: 20 µM
GI50 [10]: 33.9 µM
TGI [10]: > 100 µM

Nc1c(C(=O)c2cccc(-c3cccnc3)c2)cnn1-c1ccc(F)cc1
GI50 [2]: > 25 µM
TGI [2]: > 25 µM
GI50 [3]: > 25 µM
TGI [3]: > 25 µM
GI50 [4]: > 25 µM
TGI [4]: > 25 µM
GI50 [5]: > 25 µM
TGI [5]: > 25 µM
GI50 [6]: > 25 µM
TGI [6]: > 25 µM
GI50 [7]: > 13.9 µM
TGI [7]: > 25 µM
GI50 [8]: > 25 µM
TGI [8]: > 25 µM
GI50 [9]: > 25 µM
TGI [9]: > 25 µM
GI50 [10]: > 25 µM
TGI [10]: > 25 µM

COc1ccc([N+](=O)[O-])c2c(NCCCN(C)C)c(C)c(C)nc12
TGI [2]: > 100 µM
TGI [3]: > 100 µM
TGI [4]: > 100 µM
TGI [5]: > 100 µM
TGI [6]: > 100 µM
TGI [7]: > 100 µM
TGI [8]: > 100 µM
TGI [9]: > 100 µM
TGI [10]: > 100 µM
